According to PMC10069031 (European Journal of Medical Research, 2023):

Key:
[1] = system: CD115^hi cells in blood; assay: CD115^hi cells in blood, MC38 study; type: in vivo, mouse; settings: C57BL/6 mice with subcutaneous MC38 CRC tumors
Procedure: For tumors, single-cell suspensions were prepared from the fresh tumor pieces using a mouse Tumor Dissociation Kit (Miltenyi Biotec). The final cell pellets were resuspended in 1 mL FC buffer (PBS with 2 mM EDTA, 0.5% bovine serum albumin). Then, 100 µL of the tumor single-cell suspensions and the EDTA blood samples were stained by addition of the antibody cocktail and incubated for 10 min at 4 °C according to the manufacturer’s instructions. After antibody incubation, blood samples were incubated with 2–3 mL lysis buffer (0.17 M NH4Cl, 10 mM KHCO3, 0.1 mM EDTA) for 10–20 min at RT to lyse and remove red blood cells. Subsequently, samples were centrifuged at 300 g for 5 min at 4 °C and cells were washed with 2–3 mL FC buffer. Tumor samples were washed immediately after antibody incubation with 2–3 mL FC buffer without the lysis procedure and centrifuged at 300 g for 5 min at 4 °C. […] Next, 50 µL of blood and 70 µL of tumor cell suspensions were analyzed by FC using MACSQuant Analyzer 10 and MACSQuant Analyzer 16 (Miltenyi Biotec). FC data were analyzed with the FlowLogic software (Inivai Technologies distributed through Miltenyi Biotec; version 7.2.1) and gated as shown in Fig. S1 (see Additional file 2), whereby up to seven subpopulations were identified in the CD45^+ fraction using antibodies against F4/80 and CD115. […]

[2] = system: AKT; assay: Inhibition of AKT activation in CSF1-stimulated RAW264.7 cells (western blot); type: cell-based, mouse; settings: Mus musculus, mean ± SD (replicates), read-out: Mean kinase IC50 values: P(S473)AKT [WB]
Procedure: RAW264.7 cells (10^6) were seeded into cell culture dishes 6 cm in diameter and incubated in 4 mL RPMI/10% fetal bovine serum (Biochrom) for 24 h at 37 °C in a humidified 5% CO2 atmosphere. Cells were washed once with phosphate-buffered saline (PBS) and starved in 3 mL RPMI/0.1% bovine serum albumin for another 24 h. Cells were then treated for 1 h at 37 °C with drugs at the indicated final concentrations, with 0.5% DMSO as vehicle control, or left untreated, and finally stimulated for 2 min at 37 °C with 100 ng/mL recombinant mouse CSF1 (R&D Systems) by adding 1 mL prewarmed starving medium containing 400 ng/mL CSF1. Dishes were placed on ice and cells were immediately washed with ice-cold PBS and lysed with 50 µL lysis buffer (50 mM HEPES pH 7.5, 150 mM NaCl, 1.5 mM MgCl2, 10% glycerol, 1% Triton X-100, 0.5% desoxycholate, 0.2% sodium dodecyl sulfate, 1 mM ethylene glycol-bis[β-aminoethyl ether]-N,N,N′,N′-tetraacetic acid, 100 mM NaF, 10 mM Na4P2O7, 1 mM Na3VO4, 1% Phosphatase Inhibitor Cocktail 3 [Sigma-Aldrich], 1 mM phenylmethyl sulfonyl fluoride, Complete Protease Inhibitor Cocktail [Roche CustomBiotech; 1 tablet/10 mL], and 50 U/mL Benzonase [Sigma-Aldrich]). Lysed cells were scraped into Eppendorf tubes, incubated on ice for 20 min, and centrifuged at 4 °C for 10 min at 13,000 rpm; supernatants (lysates) were transferred into new tubes and stored at −80 °C.
Protein concentrations were determined using Pierce bicinchoninic acid assay (Thermo Fisher Scientific) and 40 µg/lane of total lysate was separated by SDS-PAGE on 4–12% Criterion XT Bis–Tris Gels (Bio-Rad) and subsequently transferred to polyvinylidene difluoride membranes using the Trans Blot Turbo Blotting System (Bio-Rad). For antigen detection, membranes were blocked with PBS Odyssey blocking reagent (LI-COR Biosciences) for 1 h at room temperature (RT). Primary antibodies were incubated overnight at 4 °C and the fluorescent secondary antibodies were incubated for 1 h at RT. After each antibody incubation, blots were washed with PBS with 0.05% Tween 20 (Carl Roth) for 15–30 min at RT. Fluorescent signals were quantitatively captured using the Odyssey DLx Infrared Imaging System (LI-COR Biosciences) and the half-maximal inhibitory concentration (IC50) values were calculated using GraphPad software (version 7 or newer).

CNC(=O)c1cc(Oc2ccc(NC(=O)Nc3ccc(Cl)c(C(F)(F)F)c3)c(F)c2)ccn1 [REG, Regorafenib]
number of CD115^hi cells in the blood [1]: reduced | IC50 [2]: 141 ± 59 nM
